Measurements as given in US20220290095A1, “Bifidobacterium breve CCFM1025, Food Fermented Thereby and Application Thereof” (Jiangnan University, priority 2018, published 2022).

Columns and labels:
5-HT in the serum = experiment: 5-HT in serum of depressed mice (ELISA); type: in vivo, C57BL/6J mice; settings: concluded from serum 5-HT, FIG. 4
Protocol: (§1) 32 6-week-old male C57BL/6J mice were selected. After one week of adaptation to the environment, the mice were randomly divided into four groups according to body weight: a control group, a model group, a fluoxetine intervention group, and a CCFM1025 intervention group, each containing 8 mice.
(§2) Chronic unpredictable stress depression mouse model: 1-2 kinds of stimuli were randomly performed every day, and the performance time of stimuli every day was determined randomly to avoid the circadian rhythm. Each method was used for not more than three times, and the stimuli were performed for five weeks. The stimuli include: (1) fasting for 24 h; (2) water deprivation+empty bottle stimulus for 24 h; (3) tail pinching for 3 min; (4) wet padding for 24 h; (5) immobilization for 1-2 h; (6) […] for 24 h; (7) continuous lighting for 24 h; (8) no padding for 24 h; (9) forced swim for 15 min; and (10) separation for 24 h.
Lactic acid bacteria gavage: the activated second generation of Bifidobacterium CCFM1025 was taken and cultured at 37° C. for 24 h, and the bacteria were collected after centrifugation at 4° C. and 8000 r/min for 3 min. […]
The serum collected in Example 3 was taken and the content of 5-HT in the serum was measured using an ELISA kit. […]

[1] = test system: depressed mice (chronic unpredictable stress depression mouse model); experiment: Depression-like behaviors of depressed mice (behavioral tests overall); type: in vivo, C57BL/6J mice
Protocol: as §1, §2
Lactic acid bacteria gavage: the activated second generation of Bifidobacterium CCFM1025 was taken and cultured at 37° C. for 24 h, and the bacteria were collected after centrifugation at 4° C. and 8000 r/min for 3 min. The supernatant was discarded and the bacteria were resuspended with 5% sterilized skim milk to make the concentration of lactic acid bacteria reach 5×10^9 CFU/mL. The gavage volume is 0.2 mL/mouse/day. […]

CNCCC(Oc1ccc(C(F)(F)F)cc1)c1ccccc1 (centres unmarked) [fluoxetine]
intestinal peristalsis / intestinal function (5-HT in the serum): cannot improve the intestinal function
depression-like behaviors / antidepressant effect [1]: has an antidepressant effect
